Values quoted from earlier work in patent US20140147381A1, “89ZR COMPOUNDS, TO INCLUDE SOMATOSTATIN, APPARATUS AND PRODUCTS COMPRISING SUCH COMPOUNDS, METHODS OF MAKING SAME, AND METHODS OF USING SAME FOR RADIO IMAGING AND/OR TREATMENT” (priority 2012, published 2014).
Each block holds one molecule with its values, some of them ahead of it.

Key:
[1] = small-animal PET
[2] = test system: carcinoid tumors; settings: carcinoid patients
[3] = in vitro

site of accumulation ([1]; free 89Zr(IV) ions): accumulate in the liver
Molecule: [Cl][89Zr]([Cl])([Cl])[Cl] [[^89Zr]-chloride]

Molecule: Interferon
biochemical response rate [2]: 40% | tumor response rate [2]: 12%

stable with respect to ligand dissociation in human serum [3]: > 7 days | excreted rapidly via the kidneys within [1]: < 20 min
Molecule: [^89Zr]-DFO
